Measurements: patent US10479807B2, “Silylated pyrimidine prodrugs and methods of their use” (priority 2014, dated 2019)
pIC50: −log10 of the molar value. Where two headings read alike, the source gives them in different places.

Experiments:
L1210 = assay: In vitro cytotoxicity, leukemia; assay type: cell-based; conditions: Mus musculus
mice = assay: Toxicity of formulated Compound XI in mice; assay type: in vivo; conditions: nanoemulsion, intravenously on three consecutive days, doses up to 60 mg/kg, observed at the end of one week
Protocol: Compound XI was successfully formulated in a nanoemulsion at a concentration of 3 mg/ml. The nanoemulsion has an oil phase consisting of an injectable oil and lecithin and an aqueous phase comprising a tonicity adjuster, a stabilizer and water. The emulsions are of oil-in-water type with the mean oil droplets less than 100 nm. Each vehicle is at neutral pH (5-7) and about isotonic. The toxicity of formulated Compound XI was tested in mice. Mice were injected intravenously on three consecutive days with Compound XI at doses of up to 60 mg/kg and observed at the end of one week.

MDA-MB-231 = assay: In vitro cytotoxicity, breast; assay type: cell-based; conditions: Homo sapiens, MDA-MB-231, read-out: In vitro cytotoxicity IC50, Breast MDA-MB-231
HCT-116 = assay: In vitro cytotoxicity, colon; assay type: cell-based; conditions: Homo sapiens, HCT-116, read-out: In vitro cytotoxicity IC50, Colon HCT-116
[1] = Release of 5-azacytidine from prodrug by hydrolysis in PBS; assay type: physicochemical; conditions: PBS at room temperature (20° C.)
[2] = trifluridine alone; cited from earlier work

For `Nc1ncn([C@@H]2O[C@H](CO)[C@@H](O)[C@H]2O)c(=O)n1` [5-azacyctidine, 5-azacytidine, reference compound], the pIC50 (L1210; L1210 leukemia, read-out: In vitro cytotoxicity IC50, Leukemia L1210) was 5.62 to 5.77.

With `C[Si](C)(C)OC[C@H]1O[C@@H](n2cnc(N)nc2=O)C(F)(F)C1O[Si](C)(C)C` (stereo partly shown) [Compound XI, 2′,2′-Difluoro-5-azadeoxycytidine-trimethylsilyl] the “Toxicity as measured by weight loss” value (mice) was “No evidence of toxicity”.

With `C[Si](C)(C)OC[C@H]1O[C@@H](n2cnc(N)nc2=O)[C@@H](O[Si](C)(C)C)C1O[Si](C)(C)C` (stereo partly shown) [NUC025, 2′,3′,5′-Tri(trimethylsilyl)-5-azacytidine] the pIC50 (MDA-MB-231) was 5.48, the pIC50 (HCT-116) was 5.97 and the pIC50 (L1210; L1210, read-out: In vitro cytotoxicity IC50, Leukemia L1210) was 5.93. For the same compound, the “Active drug (5-azacytidine) recovered by hydrolysis” value [1] was “approximately 80%”.

For `O=c1[nH]c(=O)n([C@H]2C[C@H](O)[C@@H](CO)O2)cc1C(F)(F)F` [Trifluridine, 5-trifluorothymidine], the half-life [2] is listed as 12 min.
